This is an account of results in PubChem BioAssay AID602389 (Broad Institute, 2012).

Active and inactive are the calls of the source.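 How the source made its calls: active means growth down by 35% or more in duplicate, reached at no more than twice the top tested dose; inactive means growth raised instead, and the rest.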

System in the first assay: not listed separately
Put plainly: P. aeruginosa growth delay under iron chelation, dose response, absorbance, plate reader, cherry-picks (AID 602389). The note with it: P. aeruginosa growth with EDDHA, OD600, 24-30 h; at 50 µM (top of the series).
`CCCNS(=O)(=O)c1ccc(OC)c(Cl)c1Cl`: the growth change, negative = inhibition is -7.21% (inactive). In the case of `O=C(NCC1CC1)c1cc([N+](=O)[O-])cc([N+](=O)[O-])c1`, the growth change, negative = inhibition was 7.47% (inactive). The same measure, in the same setting: the result for `O=C(c1cccc([N+](=O)[O-])c1)N1CC2C3C=CC(C3)C2C1` (configuration not stated) reads 5.48% (inactive). Still for that read-out and setting: next, `CCOC(=O)c1ccc(-c2ccc(C=O)o2)cc1`: 7.58% (inactive); `Cn1cccc1C(C#N)c1ccccc1C#N` (configuration not stated): 9.31% (inactive). On the same count and under the same terms, the result for `O=[N+]([O-])c1ccc(-c2cccnc2)cc1` reads -3.69% (inactive). On to `Clc1ccc2scc(CN3CCCCC3)c2c1`, for which the growth change, negative = inhibition is -3.92% (inactive). Same read-out and setting: next, `CCOC(=O)c1cc2c(s1)-c1c(C)cccc1OC2`: 6.54% (inactive); `COc1ccc(N2CCN(C(=O)c3ccc(Br)o3)CC2)cc1`: -4.3% (inactive); `Cc1ccc2nc(-c3ccc4c(c3)OCCO4)cn2c1`: 3.5% (inactive). Still for that read-out and setting: the result for `CCOC(=O)c1ccc(-c2ccc(CO)o2)cc1` reads -6.54% (inactive); that for `N#CC(c1ccccc1)c1cccc(Cl)n1` (configuration not stated), -11.7% (inactive). Consider `Nc1ccc(OCc2ccccc2)cc1[N+](=O)[O-]`, for which the growth change, negative = inhibition was 3.9% (inactive).

Turning to `O=[N+]([O-])c1ccc(N2CCCCC2)nc1`, the growth change, negative = inhibition is -2.09% (inactive).

With `COC(=O)c1cc(-c2ccc(OC)cc2)on1`, the growth change, negative = inhibition is -7.05% (inactive).

In the case of `Clc1cccc(CNCCCSc2ncccn2)c1`, the growth change, negative = inhibition is -7.39% (inactive).

Take `N#CC(c1ccc(Cl)nn1)c1ccc(Cl)cc1Cl` (configuration not stated): the growth change, negative = inhibition is -0.745% (inactive). Same read-out and setting: next, `N#CC(c1ccc(Cl)cc1)c1ncc(C(F)(F)F)cc1Cl` (configuration not stated): -14% (inactive); `Cn1cccc1C(C#N)c1cccc(F)c1C#N` (configuration not stated): 7.38% (inactive); `O=C(Nc1ncc([N+](=O)[O-])s1)c1cccc([N+](=O)[O-])c1`: -9.89% (inactive). Still for that read-out and setting: the result for `COC(=O)c1ccc(OC(=O)c2cccs2)cc1` reads 6.21% (inactive).

Turning to `O=C1C=C(c2cc(F)ccc2F)C[C@@H](c2ccc(F)cc2)C1`, the growth change, negative = inhibition was -1.93% (inactive). Same read-out and setting: the result for `O=C(/C=C/c1cccs1)c1cc(Cl)ccc1O` reads 18.9% (inactive); that for `O=C(NC1CCCCCCC1)c1cccc(Cl)c1`, -14.2% (inactive). For the compound `N#CCn1c(C2CCCCC2)nc2ccccc2c1=O`, the growth change, negative = inhibition was 17.3% (inactive).

For a further assay, the system named is P. aeruginosa growth with EDDHA, OD600, 24-30 h. The assay is described as above.
Conditions: not given
As to `c1ccn2cc(-c3ccc4c(c3)OCCO4)nc2c1`, the AC35 is > 50 µM (inactive). Still for that read-out and setting: the result for `Cc1cc(NC(=O)Nc2ccccc2[N+](=O)[O-])no1` reads > 50 µM (inactive); that for `COC(=O)c1cc(-c2ccc(Br)cc2)on1`, 47 µM; that for `Cc1cccc(C(C#N)c2ccc(Cl)nn2)c1` (configuration not stated), > 50 µM (inactive). The same measure, in the same setting: next, `O=C(NC1CCS(=O)(=O)C1)c1cccc(Br)c1` (configuration not stated): > 50 µM (inactive). Consider `Cc1cc(C)nc(N(C#N)Cc2ccccc2)n1`, for which the AC35 is > 50 µM (inactive). Same read-out and setting: the result for `N#CC(c1ccc(Cl)cc1)c1cccc(Cl)n1` (configuration not stated) reads 41.2 µM.
